This note sets out measurements from publication PMC5218480 (PLoS ONE, 2017).

This experiment deals with MV-4-11 cells. In words: Gene expression microarray analysis (Affymetrix PrimeView) and GSEA. The experiment is classed as cell-based, human. More on the design: RFU PODN (11730768_x_at) / Fold change /veh PODN (11730768_x_at) / RFU LINC00158 (11744669_a_at) / Fold change /veh LINC00158 (11744669_a_at) / RFU DUSP10 (11751237_a_at) / Fold change /veh DUSP10 (11751237_a_at) / RFU ID3 (11757404_x_at) / Fold change /veh ID3 (11757404_x_at) / RFU PLEKHG5 (11737974_s_at) / Fold change /veh PLEKHG5 (11737974_s_at) / RFU LRRC4B (11730491_at) / Fold change /veh LRRC4B (11730491_at) / RFU GIMAP4 (11747438_a_at) / Fold change /veh GIMAP4 (11747438_a_at) / RFU KRT8 (11758183_x_at) / Fold change /veh KRT8 (11758183_x_at) / RFU CNN1 (11734310_a_at) / Fold change /veh CNN1 (11734310_a_at) / RFU VPS37D (11726825_at) / Fold change /veh VPS37D (11726825_at) / RFU C10orf10 (11716522_x_at) / Fold change /veh C10orf10 (11716522_x_at) / RFU KIR2DL2 /// KIR2DL4 /// KIR2DL5A /// KIR2DL5B /// KIR2DS1 /// KIR2DS2 /// KIR2DS3 /// KIR2DS4 /// KIR3DL3 /// KIR3DL3 /// KIR3DS1 (11738374_at) / Fold change /veh KIR2DL2 /// KIR2DL4 /// KIR2DL5A /// KIR2DL5B /// KIR2DS1 /// KIR2DS2 /// KIR2DS3 /// KIR2DS4 /// KIR3DL3 /// KIR3DL3 /// KIR3DS1 (11738374_at) / RFU C1QL1 (11718748_at) / Fold change /veh C1QL1 (11718748_at) / RFU TMPRSS4 (11747572_a_at) / Fold change /veh TMPRSS4 (11747572_a_at) / RFU HAMP (11756126_x_at) / Fold change /veh HAMP (11756126_x_at) / RFU RNFT2 (11725882_a_at) / Fold change /veh RNFT2 (11725882_a_at) / RFU NR4A2 (11747474_a_at) / Fold change /veh NR4A2 (11747474_a_at) / RFU ABCC12 (11746883_a_at) / Fold change /veh ABCC12 (11746883_a_at) / RFU TMEM136 (11760407_x_at) / Fold change /veh TMEM136 (11760407_x_at) / RFU CLDN22 /// WWC2 (11732394_at) / Fold change /veh CLDN22 /// WWC2 (11732394_at) / RFU HLA-DPB1 (11760878_x_at) / Fold change /veh HLA-DPB1 (11760878_x_at) / RFU SPINT1 (11716480_a_at) / Fold change /veh SPINT1 (11716480_a_at) / RFU GAP43 (11754022_s_at) / Fold change /veh GAP43 (11754022_s_at) / RFU A4GNT (11735810_at) / Fold change /veh A4GNT (11735810_at) / RFU PRB3 (11715151_x_at) / Fold change /veh PRB3 (11715151_x_at) / RFU TUBB4B (11761932_at) / Fold change /veh TUBB4B (11761932_at) / RFU CAPN14 (11732068_a_at) / Fold change /veh CAPN14 (11732068_a_at) / RFU TMCC2 (11721928_a_at) / Fold change /veh TMCC2 (11721928_a_at) / RFU IRGQ (11745062_a_at) / Fold change /veh IRGQ (11745062_a_at) / RFU FAM174B (11720279_a_at) / Fold change /veh FAM174B (11720279_a_at) / RFU TMPRSS4 (11748680_a_at) / Fold change /veh TMPRSS4 (11748680_a_at) / RFU FAM212B (11763350_a_at) / Fold change /veh FAM212B (11763350_a_at) / RFU PLEKHG5 (11743358_a_at) / Fold change /veh PLEKHG5 (11743358_a_at) / RFU ZSCAN30 (11745921_a_at) / Fold change /veh ZSCAN30 (11745921_a_at) / RFU CMKLR1 (11741424_a_at) / Fold change /veh CMKLR1 (11741424_a_at) / RFU LOC101060620 /// MAPK8IP1 (11723275_at) / Fold change /veh LOC101060620 /// MAPK8IP1 (11723275_at) / RFU SPTSSB (11747773_x_at) / Fold change /veh SPTSSB (11747773_x_at) / RFU PRSS12 (11739890_at) / Fold change /veh PRSS12 (11739890_at) / RFU BIN1 (11741810_x_at) / Fold change /veh BIN1 (11741810_x_at) / RFU WNT11 (11732464_a_at) / Fold change /veh WNT11 (11732464_a_at) / RFU C10orf10 (11716521_a_at) / Fold change /veh C10orf10 (11716521_a_at) / RFU C5orf56 (11738089_at) / Fold change /veh C5orf56 (11738089_at) / RFU CYB561 (11721691_x_at) / Fold change /veh CYB561 (11721691_x_at) / RFU ANKRD19P (11752326_a_at) / Fold change /veh ANKRD19P (11752326_a_at) / RFU OR2T12 /// OR2T33 /// OR2T8 (11738714_s_at) / Fold change /veh OR2T12 /// OR2T33 /// OR2T8 (11738714_s_at) / RFU VCAN (11748164_a_at) / Fold change /veh VCAN (11748164_a_at) / RFU JSRP1 (11732532_at) / Fold change /veh JSRP1 (11732532_at) / RFU KRTAP10-11 (11738290_x_at) / Fold change /veh KRTAP10-11 (11738290_x_at) / RFU MYO3A (11730013_a_at) / Fold change /veh MYO3A (11730013_a_at) / RFU EBF3 (11725865_a_at) / Fold change /veh EBF3 (11725865_a_at) / RFU CAMK2N1 (11719241_x_at) / Fold change /veh CAMK2N1 (11719241_x_at) / RFU C5orf56 (11738088_a_at) / Fold change /veh C5orf56 (11738088_a_at) / RFU OLFML3 (11715873_a_at) / Fold change /veh OLFML3 (11715873_a_at) / RFU LOC100653217 /// NTM (11731650_a_at) / Fold change /veh LOC100653217 /// NTM (11731650_a_at) / RFU MAPK11 (11762145_a_at) / Fold change /veh MAPK11 (11762145_a_at) / RFU FIZ1 (11724087_x_at) / Fold change /veh FIZ1 (11724087_x_at) / RFU OASL (11726364_x_at) / Fold change /veh OASL (11726364_x_at) / RFU SOX15 (11748057_x_at) / Fold change /veh SOX15 (11748057_x_at) / RFU CD79A (11719716_a_at) / Fold change /veh CD79A (11719716_a_at) / RFU HIST1H1D (11736915_at) / Fold change /veh HIST1H1D (11736915_at) / RFU CASKIN2 (11723855_a_at) / Fold change /veh CASKIN2 (11723855_a_at) / RFU LOC730098 (11760151_x_at) / Fold change /veh LOC730098 (11760151_x_at) / RFU OR4N2 (11742367_at) / Fold change /veh OR4N2 (11742367_at) / RFU PRRT2 (11749266_a_at) / Fold change /veh PRRT2 (11749266_a_at) / RFU SNX32 (11753110_a_at) / Fold change /veh SNX32 (11753110_a_at) / RFU CDHR5 (11726645_a_at) / Fold change /veh CDHR5 (11726645_a_at) / RFU RCAN1 (11760418_a_at) / Fold change /veh RCAN1 (11760418_a_at) / RFU FAM167A (11723789_a_at) / Fold change /veh FAM167A (11723789_a_at) / RFU FAM26E (11764081_at) / Fold change /veh FAM26E (11764081_at) / RFU ISYNA1 (11749810_s_at) / Fold change /veh ISYNA1 (11749810_s_at) / RFU ACY1 (11761880_at) / Fold change /veh ACY1 (11761880_at) / RFU 11764098_at / Fold change /veh 11764098_at / RFU SAMD14 (11745864_x_at) / Fold change /veh SAMD14 (11745864_x_at) / RFU NPB (11741838_a_at) / Fold change /veh NPB (11741838_a_at) / RFU TMPRSS6 (11731388_a_at) / Fold change /veh TMPRSS6 (11731388_a_at) / RFU KRTAP10-2 (11738614_at) / Fold change /veh KRTAP10-2 (11738614_at) / RFU ARHGAP8 /// PRR5-ARHGAP8 (11727945_x_at) / Fold change /veh ARHGAP8 /// PRR5-ARHGAP8 (11727945_x_at) / RFU KRTAP5-7 /// NADSYN1 (11734609_at) / Fold change /veh KRTAP5-7 /// NADSYN1 (11734609_at) / RFU RASL12 (11751679_a_at) / Fold change /veh RASL12 (11751679_a_at) / RFU CDKN2B (11736163_a_at) / Fold change /veh CDKN2B (11736163_a_at) / RFU PRF1 (11729649_at) / Fold change /veh PRF1 (11729649_at) / RFU, ZNF638 /// ZNF638-IT1 / Fold change vs veh, ZNF638 /// ZNF638-IT1 / RFU, PANK3 / Fold change vs veh, PANK3 / RFU, SH3YL1 / Fold change vs veh, SH3YL1 / RFU, ZEB2 / Fold change vs veh, ZEB2 / RFU, NRIP1 / Fold change vs veh, NRIP1 / RFU, PTTG1IP / Fold change vs veh, PTTG1IP / RFU, CAPN2 / Fold change vs veh, CAPN2 / RFU, MED14 / Fold change vs veh, MED14 / RFU, SNORA58 / Fold change vs veh, SNORA58 / RFU, C1orf63 / Fold change vs veh, C1orf63 / RFU, LRRFIP1 / Fold change vs veh, LRRFIP1 / RFU, NDUFAF7 / Fold change vs veh, NDUFAF7 / RFU, SLC12A2 / Fold change vs veh, SLC12A2 / RFU, IBTK / Fold change vs veh, IBTK / RFU, ESF1 / Fold change vs veh, ESF1 / Fold change vs veh, TMEM50B / RFU, TAOK1 / Fold change vs veh, TAOK1 / RFU, ACBD3 / Fold change vs veh, ACBD3 / RFU, TMA16 / Fold change vs veh, TMA16 / RFU, RWDD3 / Fold change vs veh, RWDD3 / RFU, BCAT1 / Fold change vs veh, BCAT1 / RFU, EDEM3 / Fold change vs veh, EDEM3 / RFU, TMEM33 / Fold change vs veh, TMEM33 / RFU, WDR75 / Fold change vs veh, WDR75 / RFU, AHCTF1 / Fold change vs veh, AHCTF1 / RFU, TFRC / Fold change vs veh, TFRC / RFU, ZDHHC17 / Fold change vs veh, ZDHHC17 / RFU, NOM1 / Fold change vs veh, NOM1 / RFU, ARL8B / Fold change vs veh, ARL8B / RFU, ZBTB11 / Fold change vs veh, ZBTB11 / RFU, TAMM41 / Fold change vs veh, TAMM41 / RFU, KIAA1704 /// LOC100996395 / Fold change vs veh, KIAA1704 /// LOC100996395 / RFU, ING1 / Fold change vs veh, ING1 / RFU, TRMT61B / Fold change vs veh, TRMT61B / RFU, FUBP3 / Fold change vs veh, FUBP3 / RFU, TP53 / Fold change vs veh, TP53 / RFU, TNKS2 / Fold change vs veh, TNKS2 / RFU, ZFP14 / Fold change vs veh, ZFP14 / RFU, ACTR2 / Fold change vs veh, ACTR2 / RFU, PPP3R1 / Fold change vs veh, PPP3R1 / RFU, PIK3R1 / Fold change vs veh, PIK3R1 / RFU, HNRNPA1 / Fold change vs veh, HNRNPA1 / RFU, RNF170 / Fold change vs veh, RNF170 / RFU, ZNF28 / Fold change vs veh, ZNF28 / RFU, RNGTT / Fold change vs veh, RNGTT / RFU, OGT / Fold change vs veh, OGT / RFU, BRD1 / Fold change vs veh, BRD1 / RFU, MARS / Fold change vs veh, MARS / RFU, ZNF655 / Fold change vs veh, ZNF655 / RFU, FAHD1 / Fold change vs veh, FAHD1 / RFU, BDP1 / Fold change vs veh, BDP1 / RFU, LRRCC1 / Fold change vs veh, LRRCC1 / RFU, ARID1A / Fold change vs veh, ARID1A / RFU, ZNF146 / Fold change vs veh, ZNF146 / RFU, ZNF330 / Fold change vs veh, ZNF330 / RFU, GPN3 / Fold change vs veh, GPN3 / RFU, C9orf123 / Fold change vs veh, C9orf123 / RFU, N4BP2L2 / Fold change vs veh, N4BP2L2 / RFU, ARFIP1 / Fold change vs veh, ARFIP1 / RFU, FAM179B / Fold change vs veh, FAM179B / RFU, BCL10 / Fold change vs veh, BCL10 / RFU, UHRF1BP1L / Fold change vs veh, UHRF1BP1L / RFU, BET1 / Fold change vs veh, BET1 / RFU, CNOT2 / Fold change vs veh, CNOT2 / RFU, ZNF268 / Fold change vs veh, ZNF268 / Fold change vs veh, ZNF507 / RFU, DGCR2 / Fold change vs veh, DGCR2 / RFU, WDSUB1 / Fold change vs veh, WDSUB1 / Fold change vs veh, HSP90B1 /// MIR3652 / RFU, ADSS / Fold change vs veh, ADSS / RFU, GK / Fold change vs veh, GK / RFU, ZNF148 / Fold change vs veh, ZNF148 / RFU, TAF9 / Fold change vs veh, TAF9 / RFU, SLC1A5 / Fold change vs veh, SLC1A5 / RFU, SLMO2 / Fold change vs veh, SLMO2 / RFU, ABCC4 / Fold change vs veh, ABCC4 / RFU, LOC101060439 /// RAP1B / Fold change vs veh, LOC101060439 /// RAP1B / RFU, RFX7 / Fold change vs veh, RFX7 / RFU, GTPBP10 / Fold change vs veh, GTPBP10 / RFU, CNEP1R1 / Fold change vs veh, CNEP1R1 / RFU, BIVM-ERCC5 /// ERCC5 / Fold change vs veh, BIVM-ERCC5 /// ERCC5 / RFU, ILF3 / Fold change vs veh, ILF3 / RFU 11762660_at / Fold change /veh 11762660_at / RFU VCAN (11757783_s_at) / Fold change /veh VCAN (11757783_s_at) / RFU DDX43 (11728927_at) / Fold change /veh DDX43 (11728927_at) / RFU KRT8 (11758188_x_at) / Fold change /veh KRT8 (11758188_x_at) / RFU NKD1 (11759106_at) / Fold change /veh NKD1 (11759106_at) / RFU SRD5A1 (11742802_a_at) / Fold change /veh SRD5A1 (11742802_a_at) / RFU TPSAB1 /// TPSB2 (11721975_s_at) / Fold change /veh TPSAB1 /// TPSB2 (11721975_s_at) / RFU GSTM3 (11746129_a_at) / Fold change /veh GSTM3 (11746129_a_at) / RFU IL23R (11737362_x_at) / Fold change /veh IL23R (11737362_x_at) / RFU TMEM51 (11727254_a_at) / Fold change /veh TMEM51 (11727254_a_at) / RFU PIWIL2 (11732686_x_at) / Fold change /veh PIWIL2 (11732686_x_at) / RFU ORM1 (11744905_x_at) / Fold change /veh ORM1 (11744905_x_at) / RFU CCDC152 (11743942_at) / Fold change /veh CCDC152 (11743942_at) / RFU ECM1 (11717891_a_at) / Fold change /veh ECM1 (11717891_a_at) / RFU IL23R (11748794_a_at) / Fold change /veh IL23R (11748794_a_at) / RFU TNFAIP8L3 (11732012_x_at) / Fold change /veh TNFAIP8L3 (11732012_x_at) / RFU MBOAT4 (11741988_at) / Fold change /veh MBOAT4 (11741988_at) / RFU 11764193_at / Fold change /veh 11764193_at / RFU TMEM53 (11763286_at) / Fold change /veh TMEM53 (11763286_at) / RFU MAGEB2 (11727129_at) / Fold change /veh MAGEB2 (11727129_at) / RFU TMEM200A (11744735_a_at) / Fold change /veh TMEM200A (11744735_a_at) / RFU CCDC152 (11751479_a_at) / Fold change /veh CCDC152 (11751479_a_at) / RFU FAM211A (11726209_a_at) / Fold change /veh FAM211A (11726209_a_at) / RFU RGS16 (11746705_a_at) / Fold change /veh RGS16 (11746705_a_at) / RFU VCAN (11755009_s_at) / Fold change /veh VCAN (11755009_s_at) / RFU RHOB (11743442_s_at) / Fold change /veh RHOB (11743442_s_at) / RFU RGS16 (11720943_a_at) / Fold change /veh RGS16 (11720943_a_at) / RFU RGS16 (11720944_at) / Fold change /veh RGS16 (11720944_at) / RFU, VPS4B / Fold change vs veh, VPS4B / RFU, CREB1 / Fold change vs veh, CREB1 / RFU, DNAJC13 / Fold change vs veh, DNAJC13 / RFU, GNAQ / Fold change vs veh, GNAQ / RFU, CDK5R1 / Fold change vs veh, CDK5R1 / RFU, ZRANB3 / Fold change vs veh, ZRANB3 / RFU, CUL4A / Fold change vs veh, CUL4A / RFU, CCNY / Fold change vs veh, CCNY / RFU, UFL1 / Fold change vs veh, UFL1 / RFU, COG3 / Fold change vs veh, COG3 / RFU, DIAPH2 / Fold change vs veh, DIAPH2 / RFU, SKA2 / Fold change vs veh, SKA2 / RFU, AFF3 / Fold change vs veh, AFF3 / RFU, LMF1 / Fold change vs veh, LMF1 / RFU, IPO11 / Fold change vs veh, IPO11 / RFU, DFFB / Fold change vs veh, DFFB / RFU, FOXP1 / Fold change vs veh, FOXP1 / RFU, CARD8 / Fold change vs veh, CARD8 / RFU, STRN3 / Fold change vs veh, STRN3 / RFU, ADK / Fold change vs veh, ADK / RFU, RASSF2 / Fold change vs veh, RASSF2 / RFU, WIPF1 / Fold change vs veh, WIPF1 / RFU, LARP1B / Fold change vs veh, LARP1B / RFU, RASA1 / Fold change vs veh, RASA1 / RFU, RB1 / Fold change vs veh, RB1 / RFU, PPFIA1 / Fold change vs veh, PPFIA1 / RFU, MAT2A / Fold change vs veh, MAT2A / RFU, CCT5 / Fold change vs veh, CCT5 / RFU, WDR92 / Fold change vs veh, WDR92 / RFU, CUX1 / Fold change vs veh, CUX1 / RFU, TTC7A / Fold change vs veh, TTC7A / RFU, TMEM135 / Fold change vs veh, TMEM135 / RFU, DEPTOR / Fold change vs veh, DEPTOR / RFU, CPM / Fold change vs veh, CPM / RFU, DNAJB6 / Fold change vs veh, DNAJB6 / RFU, CACNA2D3 / Fold change vs veh, CACNA2D3 / RFU, DTX4 / Fold change vs veh, DTX4 / RFU, TFCP2 / Fold change vs veh, TFCP2 / RFU, GMCL1 /// GMCL1P1 / Fold change vs veh, GMCL1 /// GMCL1P1 / RFU, AEBP2 / Fold change vs veh, AEBP2 / RFU, SNHG1 /// SNORD22 /// SNORD25 /// SNORD26 /// SNORD27 /// SNORD28 /// SNORD29 /// SNORD31 / Fold change vs veh, SNHG1 /// SNORD22 /// SNORD25 /// SNORD26 /// SNORD27 /// SNORD28 /// SNORD29 /// SNORD31 / Fold change (Aza/veh), C12orf56 (ProbeSet 11735607_a_at) / Fold change (ACY-1035/veh), C12orf56 (ProbeSet 11735607_a_at) / Fold change (Aza/veh), FGFR1OP (ProbeSet 11751329_s_at) / Fold change (ACY-1035/veh), FGFR1OP (ProbeSet 11751329_s_at) / Fold change (Aza/veh), VPS36 (ProbeSet 11739960_a_at) / Fold change (ACY-1035/veh), VPS36 (ProbeSet 11739960_a_at) / RFU SYPL1 (11715823_x_at) / Fold change /veh SYPL1 (11715823_x_at) / RFU IGFBP7 (11715501_s_at) / Fold change /veh IGFBP7 (11715501_s_at) / RFU REEP3 (11722064_at) / Fold change /veh REEP3 (11722064_at) / RFU IGLL1 (11728026_x_at) / Fold change /veh IGLL1 (11728026_x_at): dose or concentration left out as unconfirmed. The following applies: ProbeSet 11741123_x_at; LIST D.

As for `Nc1ccc(-c2cccs2)cc1NC(=O)c1ccc2c(c1)cc(C1CC1)n2CCN1CCOCC1` [ACY-1035], the “RFU, ADK” value came to 253.83 RFU.
